One assay deals with p65. The assay is described as follows: TNF-induced phosphorylation and nuclear translocation of p65. It counts as cell-based, human. The conditions noted are these: H1299, 50 μM, 4 hours, 0.1 nM TNF. As to the method: (§1) Western Blot Analysis: To determine the effect of guggulsterone on TNF-dependent IκBα phosphorylation, IκBα degradation, p65 translocation and p65 phosphorylation, cytoplasmic extracts were prepared as previously described (Majumdar et al., 2001) from H1299 (2×10^6/ml) pretreated with 50 μM guggulsterone for 4 h and then exposed to 0.1 nM TNF for various times. Thirty micrograms of cytoplasmic protein was resolved on 10% SDS-PAGE gel, transferred to a nitrocellulose membrane, blocked with 5% non-fat milk, and probed with specific antibody against IκBα, posphorylated IκBα, p65 and phosphorylated p65. To determine the expression of cyclin D1, COX-2, MMP-9, clAP-1, xlAP, TRAF1, Bcl-2, Bfl-1, cFLIP, and survivin, whole-cell extracts were prepared from treated cells (2×10^6 cells in 2 ml medium), 30-50 μg protein was resolved on SDS-PAGE gel and probed by Western blot with specific antibodies as per manufacturer's recommended protocol. The blots were washed, exposed to HRP-conjugated secondary antibodies for 1 hour, and finally detected by ECL reagent (Amersham Pharmacia Biotech.). The bands were quantitated using a Personal Densitometer Scan v1.30 using IMAGEQUANT™ software version 3.3 (Molecular Dynamics).
Immunolocalization of NF-κB p65: The effect of guggulsterone on […] nuclear translocation of p65 was examined using an immunocytochemical method as described previously (Bharti et al., 2003). Stained slides were mounted with mounting medium (Sigma Chemical) and analyzed under an epifluorescence microscope (Labophot-2; Nikon, Tokyo, Japan). Images were captured using a PHOTOMETRICS COOLSNAP CF™ color camera (Nikon, Lewisville, Tex.) and METAMORPH™ version 4.6.5 software (Universal Imaging, Downingtown, Pa.).

The test system of assay [1] is COX-2, MMP-9, VEGF, cyclin D1, c-myc, cIAP1, xIAP, Bfl-1, BCL-2, TRAF1, cFLIP, survivin. The assay is described as follows: TNF-induced expression of NF-κB regulated gene products, Western blot. It counts as cell-based, human. The conditions noted are these: H1299, 50 μM, 0.1 nM TNF. The procedure:
as §1
For orientation: In western blotting, separated proteins are transferred to a membrane and probed.

For the next assay, the system named is PARP. Description: PARP cleavage assay, TNF plus guggulsterone. It counts as cell-based, human. The conditions noted are these: KBM-5, serum starved 24 hours; TNF in combination with guggulsterone. The procedure: PARP cleavage assay: For detection of cleavage products of PARP, whole-cell extracts were prepared by subjecting the guggulsterone-treated cells to lysis in lysis buffer (20 mM Tris, pH 7.4; 250 mM NaCI; 2 mM EDTA, pH 8.0; 0.1% Triton-X 100; 0.01 μg/ml aprotinin; 0.005 μg/ml leupeptin; 0.4 mM PMSF; and 4 mM NaVO4). Lysates will be spun at 14000 rpm for 10 min to remove insoluble material, resolved by 10% SDS PAGE, and probed with PARP antibodies. PARP is cleaved from the 116-kDa intact protein into 85-kDa and […] peptide products. To detect cleavage products of procaspase-3 and procaspase-9, whole-cell extracts will be resolved by 10% SDS PAGE and probed with appropriate antibodies.

A further assay has as its system IKK. The assay is described as follows: RANKL-induced IKK activity, IKK assay. It counts as cell-based, mouse. The conditions noted are these: RAW 264.7.
Another assay has as its system JNK. The assay is described as follows: JNK assay in MKK4 mutants and wild type cells. It counts as cell-based. The conditions noted are these: 10 μM. As to the method: JNK kinase assay. To determine the effect of guggulsterone on the kinase activity of JNK, JNK complex from whole-cell extracts was precipitated with antibody against JNK1, followed by treatment with protein A/G-Sepharose beads (Pierce, Rockford, Ill.). After 2 h of incubation, the beads were washed with lysis buffer and then assayed in kinase assay mixture containing 50 mM HEPES (pH 7.4), 20 mM MgCl2, 2 mM dithiothreitol, 20 μCi of [γ-^32P]ATP, 10 μM unlabeled ATP, and 2 μg of substrate GST-c-Jun (1-79). The immunocomplex was incubated at 30° C. for 30 min and then boiled with SDS sample buffer for 5 min. Finally, the protein was resolved on 10% SDS-PAGE, the gel was dried, and the radioactive bands were visualized using the PhosphorImager. To determine the total amount of JNK1 in each sample, whole-cell extracts were subjected to Western blot analysis using anti-JNK1 antibody.

The subject of a further assay is STAT3. The assay is described as follows: Constitutive STAT3 phosphorylation in U266 cells, Western blot. The format is cell-based, human. As to the method: Western blot. For detection of STAT proteins, whole-cell extracts were prepared by lysing the guggulsterone-treated cells in lysis buffer (20 mM Tris, pH 7.4, 250 mM NaCl, 2 mM EDTA, pH 8.0, 0.1% Triton −X100, 0.01 mg/ml aprotinin, 0.005 mg/ml leupeptin, 0.4 mM PMSF, and 4 mM NaVO4). Lysates were then spun at 14,000 rpm for 10 min to remove insoluble material, and resolved on a 7.5% gel. After electrophoresis, the proteins were electrotransferred to a nitrocellulose membrane, blocked with 5% nonfat milk, and probed with anti-STAT antibodies (1:1000) overnight at 4° C. The blot was washed, exposed to HRP-conjugated secondary antibodies for 1 h, and finally examined by chemiluminescence (ECL, Amersham Pharmacia Biotech. Arlington Heights, Ill.).

The subject of assay [2] is inducible nitric oxide synthetase (iNOS). The conditions noted are these: Meselhy et al., 2003; cited from earlier work.

Take `CC=C1C(=O)C[C@H]2[C@@H]3CCC4=CC(=O)CC[C@]4(C)[C@H]3CC[C@]12C` [guggulsterone, 4,17(20)-pregnadiene-3,16-dione]: in the assay on p65, the “TNF-induced nuclear translocation of p65, Western blot” value is recorded as “abolished the TNF-induced nuclear translocation of p65” and the “TNF-induced nuclear translocation of p65, immunocytochemistry” value is listed as “abrogated the p65 translocation”. The “TNF-induced phosphorylation of p65” value with p65 (Western blot) was “suppressed p65 phosphorylation almost completely”. Besides, the “TNF-induced COX-2, MMP-9 and VEGF expression” value in assay [1] (4 h) is reported as “abolished the TNF-induced expression of these gene products”. Moreover, in assay [1] (4 hours), the “TNF-induced cyclin D1 and c-myc expression” value is “abolished the expression of these gene products”; the “TNF-induced expression of cIAP1, xIAP, Bfl-1, BCL-2, TRAF1, cFLIP and survivin” value is given as “this expression was inhibited”. For the same compound, the “caspase-induced cleavage of PARP activated by TNF” value with PARP is recorded as “enhanced the caspase-induced cleavage of PARP activated by TNF”. For the same compound, in the assay with IKK (50 μM, 4 h pre-incubation, 10 nM RANKL), the “RANKL-induced IKK activity (phosphorylation of GST-IκBα)” value is “could not phosphorylate GST-IκBα upon RANKL treatment”. The “expression of IKK-α and IKK-β” value in the assay with IKK (Western blot) is “did not alter the expression of IKK-α and IKK-β”. Moreover, in the assay on JNK, the “guggulsterone induced JNK activation, dependence on MKK4” value is given as “MKK4 is required for guggulsterone induced JNK activation”. The “overall expression of STAT3 protein” value with STAT3 was “did not alter the overall expression of STAT3 protein”. Moreover, in the assay with STAT3 (25 μM), the “earliest time at which inhibition of constitutive STAT3 phosphorylation is observed” value turned out to be 4 h. In the assay with STAT3 (4 h), the “lowest concentration at which inhibition of constitutive STAT3 phosphorylation is observed” value came to 25 µM. Moreover, the “constitutively active (phosphorylated) STAT3” value with STAT3 (time- and dose-dependent) was “inhibited the constitutively active STAT3”. Also, the “iNOS expression induced by LPS in macrophages” value in assay [2] is recorded as “inhibiting inducible nitric oxide synthetase (iNOS) expression”.

(Values after patent US20060019907A1, “Guggulsterone: an inhibitor of nuclear factor - kappaB and IkappaBalpha kinase activation and uses thereof” (Research Development Foundation, priority 2004, published 2006).)
